These results are taken from patent US9937250B2, “Immunogenic tumor associated stromal cell antigen peptides and methods of their use” (University of Pittsburgh—Of the Commonwealth System of …, priority 2011, dated 2018).

The test system of experiment [1] is MC38 tumor microenvironment. Briefly: Fluorescence imaging of MC38 tumor sections after prophylactic vaccination. The format is in vivo, HHD mice. The settings on record: day 14 tumors; p<0.05 vs. untreated or DC.IL12/no peptide. The source says: Day 14 MC38 tumors were harvested from HHD mice that had been vaccinated as outlined in FIG. 9B with the indicated peptides (or control PBS or DC.IL12 alone=No peptide). In FIG. 10A, six-micron tissue sections were co-stained with anti-CD8 (green) and anti-NG2 (red) antibodies and imaged by fluorescence microscopy. Blue signal=nuclear counterstain using 4′,6-diamidino-2-phenylindole (DAPI). FIG. 10B provides a summary of the mean+/−SD number of CD8^+ cells per high-power field (HPF) in MC38 tumors isolated from control or vaccinated mice as depicted in FIG. 10A. In FIG. 10C, tissue sections were co-stained with anti-CD31 (green) and anti-NG2 (red) antibodies and imaged by fluorescence microscopy. Blue signal=nuclear counterstain using DAPI. In FIG. 10D, the mean+/−SD number of CD31^+ vessels per HPF of MC38 tumors in control or vaccinated mice are summarized Representative data is depicted from 1 of 3 independent experiments performed. *p<0.05 versus DC only or untreated control mice.
Fluorescence Imaging of Tumor Sections. Tumor tissue samples were prepared and 6 micron sections prepared as previously reported (Komita et al., Cancer Res., 68:8076-8084, 2008). The following Abs were used: (for T cell analyses), rabbit anti-mouse NG2 (Millipore, Bedford, Mass.) and alexa488-conjugated anti-CD4 or -CD8β antibodies or matching isotype controls (all from BD-Biosciences); (for vascular analyses), rat anti-mouse CD31 (BD-Biosciences) and rabbit anti-mouse NG2 (Millipore) Abs; (for TBVA), rat anti-mouse CD31 (BD-Biosciences) and guinea pig anti-mouse NG2 Abs, along with anti-TBVA as described in Example 1. Imaging was performed using an Olympus Fluoview 500 Confocal microscope (Olympus America, Center Valley, Pa.).
Protective vaccines incorporating TBVA peptides promote enhanced infiltration of the TME by CD8^+ T cells in association with an inhibition of tumor vascularity. MC38 tumor lesions from all cohorts of animals with evidence of disease on day 14 (post-tumor inoculation) were isolated and immunofluorescence microscopy on tumor sections was performed. […] In marked contrast, CD4^+ T cell infiltration in the TME was sparse and the data were indistinguishable when comparing control vs. vaccinated mice (FIG. 17). […] Correlative analyses indicated an association between the anti-tumor efficacy of vaccines and their ability to promote CD8^+ T cell infiltration and reduced vascularity in the TME (FIG. 16).

In a further experiment the test system is MC38 colon carcinoma. The experiment is described as follows: MC38 protection (prophylactic vaccination) model. The format is in vivo, HHD mice. The following applies: immunization days -14 and -7, tumor challenge day 0 (FIG. 9B). The source says: FIGS. 9A-9B show a series of graphs illustrating induction of specific/protective CD8^+ T cells reactive against TASA as a consequence of DC/peptide-based vaccination. In FIG. 9A, HHD mice (five animals/cohort) were vaccinated twice (d-14, d-7) subcutaneously with PBS or with isologous DC.IL12 pulsed with PBS or synthetic peptides (Table 6) derived from the indicated TASA. In cases where more than 1 peptide was identified for a given target antigen, an equimolar pool of the indicated peptides (each 10 μM) was pulsed onto DC.IL12 and used for vaccination in the relevant cohort. One week after the second immunization, spleens were harvested and splenic CD8^+ T cells isolated using MACS-beads (Miltenyi). T cells were stimulated in vitro for 48 h using the HLA-A2^+ T2 cell line pulsed with relevant TASA vs. irrelevant HIV-nef190-198 ([…]; ref. 24) peptides. Cell-free supernatants were then recovered and IFN-γ levels by ELISA. Data are reported as mean+/−SD for triplicate ELISA determinations, and are representative of 3 independent experiments performed. *p<0.05 vs. HIV-nef control peptide responses. In FIG. 9B, HHD mice were vaccinated twice (days −14 and −7; right flank) subcutaneously with PBS or with isologous DC.IL12 pulsed with PBS or synthetic TASA peptides as indicated in FIG. 1A. In cases where more than 1 peptide is identified for a given target antigen, an equimolar pool of the indicated peptides (each 10 μM) was pulsed onto DC.IL12 and used for vaccination in the relevant cohort. One week after the booster vaccine (i.e. day zero), animals were challenged subcutaneously on their left flank with 2×10^6 MC38 colon carcinoma cells. Tumor growth was then monitored every 3-4 days through day 24. All data represent mean tumor area (in mm^2)+/−SD determined from 5 mice/cohort, and are representative of three independent experiments performed. *p<0.05 versus DC only on the indicated days.
Vaccine Experiments. For prophylactic experiments, HHD mice were immunized subcutaneously on the right flank with 100 μl PBS or PBS containing 10^6 syngenic DC.IL12 cells that had been untreated or pre-pulsed for 4 h at 37° C. with 10 μM synthetic peptide(s). Immunizations occurred on days −14 and −7, with mice subsequently receiving injections of MC38 (2×10^6) tumor cells in the left flank on d0. In all cases, treatment groups contained 5 mice per cohort. For analysis of tumor cellular composition in repeat experiments, MC38 tumors were isolated by surgical resection 10 days after tumor inoculation and prepared for fluorescence imaging, as described below. […] Mice were then untreated or treated with control, syngenic DC.IL12 or DC.IL12 (10^6 cells injected subcutaneously in the left flank on days 7 and 14) pulsed with synthetic TBVA peptides. In some assays, as indicated, in vivo antibody depletions (on days 6, 13 and 20 post-tumor inoculation to assess early involvement or on days 60 and 67 or 180 and 187 to assess late involvement) of protective CD4^+ T cells or CD8^+ T cells were performed and monitored as previously described (Zhao et al., Mol Ther., 19:805-814, 2011). In all cases, tumor size (area) was monitored every 3-4 days and is reported as mean+/−SD in mm^2.
The DLK1, EphA2, HBB, NG2, NRP1, NRP2, PDGFRβ, PSMA, RGS5, TEM1, VEGFR1 and VEGFR2 antigens were expressed in situ by blood vessel cells in the MC38 colon carcinoma TME (FIG. 14). Protection of HHD mice against a challenge with HLA-A2^neg MC38 tumor cells injected subcutaneously on day zero was assayed with immunization with TBVA-derived peptides on days −14 and −7. […]

Take “EphA2: EphA2-derived peptide 883-891 pulsed onto DC or DC.IL12 (TLADFDPRV; listed as Homo sapiens)”: the “Suppression in CD31+ vessel counts in the MC38 TME” value (“Suppression in CD31+ vessel counts” for short) in experiment [1] is on record as “greatest degree of suppression in CD31^+ vessel counts”. Moreover, the “Protection against HLA-A2neg MC38 tumor challenge” value (shortened to “Protection”) with MC38 colon carcinoma is recorded as “effective in preventing HLA-A2^neg MC38 tumor establishment or they resulted in the regression of tumors”.
As to “RGS5: RGS5-derived peptide 5-13 pulsed onto DC or DC.IL12 (LAALPHSCL; listed as Homo sapiens)”, the “Suppression in CD31+ vessel counts” value in experiment [1] is on record as “greatest degree of suppression in CD31^+ vessel counts”. The “Protection” value in the experiment on MC38 colon carcinoma is given as “effective in preventing HLA-A2^neg MC38 tumor establishment or they resulted in the regression of tumors”.
With “TEM1: TEM1-derived peptide 691-700 pulsed onto DC or DC.IL12 (LLVPTCVFLV; listed as Homo sapiens)”, the “Suppression in CD31+ vessel counts” value in experiment [1] was “greatest degree of suppression in CD31^+ vessel counts”. Moreover, in the experiment on MC38 colon carcinoma, the “Protection” value was “effective in preventing HLA-A2^neg MC38 tumor establishment or they resulted in the regression of tumors”.
